Structures can show the parent of a compound that is named as a salt.
Key:
[1] = Semi-quantitative solubility of zolpidem tartrate in different cyclodextrin solutions (Example 1); assay type: physicochemical; details: aqueous cyclodextrin solution, aqueous with cosolvent or surfactant or cyclodextrin, thermodynamic from solid, room temperature
Protocol: A semi-quantitative comparison was made of the ability of different cyclodextrins to enhance the aqueous solubility of zolpidem tartrate.
Aqueous solutions were prepared containing 200, 300 and 400 mg/ml of three types of cyclodextrin. These were hydroxypropyl-β-cyclodextrin (HP-CD) (Cavamax® W7 HP Pharma, Wacker, Germany), methylated-β-cyclodextrin (M-CD) (Cavamax® W7 M Pharma, Wacker) and sulfobutylether-β-cyclodextrin (SBE-CD) (Captisol®, CyDex, USA). 25 mg samples of zolpidem tartrate (ZMC, Zheijang, Hangzhou, China) were added to a 0.5 ml portion of each cyclodextrin solution. The mixtures (containing 50 mg/ml drug) were stirred overnight at room temperature. If drug dissolved then more was added. If undissolved drug remained then an additional 0.5 ml of cyclodextrin solution was added and stirring continued. From this experiment an estimate could be made of zolpidem tartrate solubility in the different cyclodextrin solutions.

[2] = Saturated solubility of zolpidem tartrate in SBE-CD solutions with and without chitosan, UV 296 nm (Example 2); assay type: physicochemical; details: aqueous SBE-CD solution, 18 °C, aqueous with cosolvent or surfactant or cyclodextrin, thermodynamic from solid
Protocol: A stock solution was prepared containing 400 mg/ml SBE-CD in water and then dilutions made to 100, 150, 200, 250 and 300 mg/ml. Into 2 ml portions of the stock and diluted SBE-CD solutions was dissolved 10 mg of chitosan glutamate (Protasan UPG213, NovaMatrix, Drammen, Norway). To each of these samples of SBE-CD/chitosan solution and to each of six chitosan-free 2 ml samples of SBE-CD solutions were added 140 mg samples of zolpidem tartrate. The samples were left to stir overnight at room temperature (18° C.). If during this time all the drug dissolved, further amounts were added until a suspension was formed (i.e. saturated drug solution formed). After further stirring for up to 72 hours, suspensions were filtered (0.45 μm filter, Gelman, Portsmouth, UK) to recover saturated zolpidem tartrate solutions. The filtrate samples were diluted in water and the UV absorbance at 296 nm measured. By reference to a calibration curve of UV absorbance (296 nm) vs. zolpidem concentration, the concentration of zolpidem in the samples was calculated. Solubility data are presented in Table 2 and presented graphically in FIG. 1.

[3] = Pharmacokinetic performance of intranasal and IV zolpidem formulations in sheep (Example 6); details: for Tmax: intranasal, zolpidem dose 20 mg, mean n = 5
Protocol: A group of five female sheep was used, each weighing around 45 kg. The formulations were administered to a randomised cross-over design. […] This dose was provided by transferring 3.5 ml of the test formulation into a glass bottle, attaching a Valois VP7 spray pump and actuator to the bottle, priming the pump and then administering two 0.1 ml sprays into each nostril.
Blood samples were collected over a 360 minute period following dosing and plasma separated. Plasma samples were assayed by an HPLC method for zolpidem content. Pharmacokinetic parameters were calculated from the plasma data.

Cc1ccc(-c2nc3ccc(C)cn3c2CC(=O)N(C)C)cc1 [zolpidem tartrate]
solubility ([1]; HP-CD 200 mg/ml): 25 to 31 mg/mL | solubility ([1]; HP-CD 300 mg/ml): 31 to 36 mg/mL | solubility ([1]; HP-CD 400 mg/ml): 36 to 50 mg/mL | solubility ([1]; M-CD 200 mg/ml): 25 to 31 mg/mL | solubility ([1]; M-CD 300 mg/ml): 31 to 36 mg/mL | solubility ([1]; M-CD 400 mg/ml): 31 to 36 mg/mL | solubility ([1]; SBE-CD 200 mg/ml): > 50 mg/mL | solubility ([1]; SBE-CD 300 mg/ml): 50 to 56 mg/mL | solubility ([1]; SBE-CD 400 mg/ml): ~60 mg/mL | solubility ([2]; SBE-CD 100 mg/ml, 5 mg/ml chitosan glutamate, read-out: Zolpidem tartrate solubility in presence of 5 mg/ml chitosan glutamate): 46.2 mg/mL | solubility ([2]; SBE-CD 100 mg/ml, no chitosan, read-out: Zolpidem tartrate solubility): 41.9 mg/mL | solubility ([2]; SBE-CD 150 mg/ml, 5 mg/ml chitosan glutamate, read-out: Zolpidem tartrate solubility in presence of 5 mg/ml chitosan glutamate): 51.9 mg/mL | solubility ([2]; SBE-CD 150 mg/ml, no chitosan, read-out: Zolpidem tartrate solubility): 46.5 mg/mL | solubility ([2]; SBE-CD 200 mg/ml, 5 mg/ml chitosan glutamate, read-out: Zolpidem tartrate solubility in presence of 5 mg/ml chitosan glutamate): 55.6 mg/mL | solubility ([2]; SBE-CD 200 mg/ml, no chitosan, read-out: Zolpidem tartrate solubility): 57.3 mg/mL | solubility ([2]; SBE-CD 250 mg/ml, 5 mg/ml chitosan glutamate, read-out: Zolpidem tartrate solubility in presence of 5 mg/ml chitosan glutamate): 55.9 mg/mL | solubility ([2]; SBE-CD 250 mg/ml, no chitosan, read-out: Zolpidem tartrate solubility): 56.1 mg/mL | solubility ([2]; SBE-CD 300 mg/ml, 5 mg/ml chitosan glutamate, read-out: Zolpidem tartrate solubility in presence of 5 mg/ml chitosan glutamate): 63.7 mg/mL | solubility ([2]; SBE-CD 300 mg/ml, no chitosan, read-out: Zolpidem tartrate solubility): 57.5 mg/mL | solubility ([2]; SBE-CD 400 mg/ml, 5 mg/ml chitosan glutamate, read-out: Zolpidem tartrate solubility in presence of 5 mg/ml chitosan glutamate): 68.1 mg/mL | solubility ([2]; SBE-CD 400 mg/ml, no chitosan, read-out: Zolpidem tartrate solubility): 69 mg/mL

Cc1ccc(-c2nc3ccc(C)cn3c2CC(=O)N(C)C)cc1 [zolpidem, N,N,6-trimethyl-2-(4-methylphenyl)-imidazo[1,2-a]pyridine-3-acetamide]
Tmax ([3]; female, plasma, inhaled or intranasal, 20 mg, Tmax): 13 min | Effect of inclusion of chitosan on bioavailability ([3]; intranasal solution with vs without chitosan): significantly enhanced | Tmax [3]: 16 min
